US20260284014A1, “3,5-DIAMINOTRIAZOLE DERIVATIVES AND USES THEREOF FOR TREATING OCULAR DISEASES” (CENTRE NATIONAL DE LA RECHERCHE SCIENTIFIQUE, priority 2023, published 2026)
“Also recorded” adds a separate entry of the source.

Tests used:
ARPE-19 cells = experiment: Cell viability (XTT assay); assay type: cell-based; settings: Homo sapiens, 48 h, read-out: A. Safety IC50 on ARPE-19 cells
Experimental: ARPE-19 cells were incubated in a 96-well plate with different effectors for 48 hours. Fifty microliters of sodium 3′-[1-phenylaminocarbonyl)-3,4-tetrazolium]-bis(4-methoxy-6-nitro) benzene sulfonic acid hydrate (XTT) reagent was added to each well. The test is based on the cleavage of the yellow tetrazolium salt XTT to form an orange formazan dye by metabolically active cells. This bio-reduction occurs in viable cells only and is associated with NAD(P)H production through glycolysis. Therefore, the amount of formazan dye measured at 490 nm, correlates directly with the number of metabolically active cells reflecting cell proliferation, viability, and cytotoxicity. Each assay was performed in quadruplicate.
(§1) All compounds were evaluated in different experiments. Results are represented as the mean of three independent experiments. A. ARPE-19 cells were treated with dose response of compound for 48 h. Values are reported as IC50 measured with the XTT assay. B and C. ARPE-19 cells were treated with 5 μM (B) or 1 μM (C) compound then with 200 μM H2O2 for 2 h. ROS were analyzed by cytometry. […] As illustrated in FIG. 1A. D. ARPE-19 cells were treated with 2.5 μM compound for 48 h and the level of CXCL1 mRNA was evaluated by qPCR. […] As illustrated in FIG. 1B. E. TIME cells were pre-treated with 2.5 μM compound for 1 h then stimulated with 100 ng/ml CXCL8 for 15 min p-ERK levels were analyzed by immunoblotting. HSP90 served as loading control. […] As illustrated in FIG. 1C.

ROS = ROS labeling by cytometry after H2O2; assay type: cell-based; settings: for inhibition at 1 µM / inhibition at 5 µM: Homo sapiens, ARPE-19; for inhibition at 1 µM: 1 μM compound then 200 μM H2O2 for 2 h, read-out: C. ROS inhibition 1 μM - ARPE-19 cells; for inhibition at 5 µM: 5 μM compound then 200 μM H2O2 for 2 h, read-out: B. ROS inhibition 5 μM - ARPE-19 cells
Experimental: ARPE-19 cells were treated with MCK349 30 minutes then with 200 μM H2O2 for 2 h. 10 μM DCF-DA (2′,7′-Dichlorofluorescein diacetate) were added on cell media for 30 min. Cells were rinsed then detached (trypsin) and resuspended in PBS 0.5% BSA and 2 mM EDTA. The cells are analyzed by cytometry (ROS labeled with DCFDA-FITC).
as §1

ERK activation (p-ERK) = experiment: p-ERK immunoblotting after CXCL8 stimulation; assay type: cell-based; settings: 2.5 μM compound 1 h then 100 ng/ml CXCL8 for 15 min; read-out: E. p-ERK inhibition - TIME
Experimental: Cells were lysed in buffer containing 3% SDS, 10% glycerol and 0.825 mM Na2HPO4. 30 to 50 μg of proteins separated on 10% SDS-PAGE, transferred onto a PVDF membrane and then exposed to the appropriate antibodies. Proteins were visualized with the ECL system using horseradish peroxidase-conjugated anti-rabbit or anti-mouse antibodies.
as §1

[1] = test system: pro-inflammatory cytokines; experiment: LPS stimulated whole blood, multiplex ELISA; assay type: cell-based; settings: human whole blood, 5 or 10 μM 1 h prior to 10 ng/ml LPS for 18 h
From the text: Human peripheral […] were obtained from healthy donors with informed consent following the Declaration of Helsinki according to recommendations of an independent scientific review board. The project has been validated by The Etablissement Français du Sang, the French national agency for blood collection (protocol 7952NQ). Blood samples were collected using ethylene diamine tetraacetic acid-containing tubes.
Whole blood will be removed from a single donor (K3-EDTA) and diluted 1:5 with RPMI 1640. Within 30 minutes of sampling, blood will be incubated with 5 or 10 μM MCK349 for 1 h prior to 10 ng/ml LPS stimulation for 18 h. Blood is centrifuged to recover plasma and cytokines are analyzed by multiplex ELISA (Meso Scale Discovery).
(§2) Cytokines from plasma (whole blood) or supernatant (ARPE-19 cells) were analyzed by multiplex ELISA. A multiplex ELISA was designed from U-PLEX Biomarker Group 1 (hu) Assays (K15069L-1). The protocol performed follows the instructions of the supplier.

[2] = test system: pro-inflammatory, pro-angiogenic and/or pro-fibrotic mRNA markers; experiment: ARPE-19 stimulation to mimic diabetic retinopathy in vitro, mRNA by qPCR; assay type: cell-based; settings: ARPE-19, high glucose + cytokines, 5 or 10 μM
Experimental: One microgram of total RNA was used for the reverse transcription, using the QuantiTect Reverse Transcription kit (QIAGEN, Hilden, Germany), with blend of oligo (dT) and random primers to prime first-strand synthesis. SYBR master mix plus (Eurogentec) was used for qPCR. The mRNA level was normalized to 36B4 mRNA
(§3) ARPE-19 cells were cultured in hyperglycaemic conditions (D-glucose, 25 mmol/l) for 16 days at 37° C. under 5% CO2 in medium (DMEM/F12) supplemented with 10% FBS and 1% penicillin. On day 16, cells were pre-treated with MCK349. On day 17, cells were washed and treated with MCK349 and cytokines (10 ng/ml IL1ß, 25 ng/ml VEGF and 25 ng/ml TNFα) for 24 h. Cytokines are analyzed by multiplex ELISA (Meso Scale Discovery) on the supernatant. Cells were recovered to analyze the mRNA level of different markers by qPCR.

[3] = test system: pro-inflammatory, pro-angiogenic and/or pro-fibrotic cytokines; experiment: ARPE-19 stimulation to mimic diabetic retinopathy in vitro, cytokines by multiplex ELISA; assay type: cell-based; settings: ARPE-19, high glucose + cytokines, 5, 10, or 25 μM
Experimental: as §3, §2

[4] = test system: ocular (retinal) neo-angiogenesis; experiment: Hypoxia-induced retinal neo-angiogenesis in zebrafish; assay type: in vivo; settings: hypoxia 5% oxygen 72 h, 0.25, 0.5, or 1 μM
Experimental: All animal experiments were approved by the Experimental Animal Ethical Committee. Transgenic zebrafish embryos (fli: EGFP, blood vessels marked in GFP) were raised at 28° C. under standard experimental conditions. Zebrafish embryos at the age of 24 hpf were incubated in aquarium water containing 0.2 mmol/L 1-phenyl-2-thio-urea (PTU, Sigma). At 48-hpf, zebrafish embryos were placed for 72 h in normoxia (Nx) or hypoxia 5% oxygen […], in the presence of treatment. Retinal neo-angiogenesis was analyzed by fluorescent confocal microscope and quantified by ImageJ.

TIME cells [5] = experiment: Vessels formation assay on Matrigel; assay type: cell-based; settings: 5 or 10 μM
Experimental: 300 μL of Matrigel Matrix were coated in 24-well plates and put 1 h a 37° C. Then Time cells were plated (300 000 cells/well). Plates were then incubated at 37° C., 5% CO2 for 24 hours. Representative images were taken with the Evos XL Core Cell Imaging System at low magnification (4×).

TIME cells [6] = experiment: Endothelial cells proliferation; assay type: cell-based; settings: 72 h
Experimental: TIME cells were plated in 12-well plates (25 000 cells/well) in 0.5% SVF media and then stimulated with 100 ng/mL CXCL8 or CXCL7 for 72 h. Cell proliferation is assessed by cell count. The results are expressed as % of day 0 relative to the condition tested.

[7] = test system: choroidal neovascularization (CNV); experiment: Laser induced choroidal neovascularization and vascular leakage in mice; assay type: in vivo; settings: intravitreal 52 μg/ml (2 μl) four times, Day 9 and 15
Experimental: Laser photocoagulation (shoot retina with laser beam (50 μm, 0.1 s, and 250~300 mW or any other parameters reasonable) for 4 spots avoiding blood vessels) were performed binocularly on each animal at Day 1 on male C57 mice (8 mice per group).
Vehicle and MCK349 (52 μg/ml) were delivered by binocular intravitreal injection (2 μl) four times in total. Once on Day 1 (right after modeling), Day 4, Day 7 and Day 11. Optical Coherence Tomography (OCT) was performed once on modeling day right after laser photocoagulation and once on Day 9 and Day 15. CNV volume of each lesion will be measured. Fundus Fluorescein Angiography (FFA) was conducted once on Day 9 and Day 15. The angiograms will be graded as follows: Grade 0, no bright hyperfluorescence; Grade 1, hyperfluorescence without leakage; Grade 2a, hyperfluorescence and late leakage; and Grade 2b, bright hyperfluorescence and late leakage beyond treated areas.

Row | Structure (SMILES) | IC50 (ARPE-19 cells) [µM] | inhibition at 1 µM (ROS) [%] | inhibition at 5 µM (ROS) [%] | inhibition at 2.5 µM (ERK activation (p-ERK)) [%] | pro-inflammatory cytokines induced by LPS stimulation in whole blood [1] | expression (mRNA) of pro-angiogenic and/or pro-inflammatory cytokines in diabetic retinopathy model in vitro [2] | secretion of pro-angiogenic and/or pro-inflammatory cytokines in diabetic retinopathy model in vitro [3] | ocular (retinal) neo-angiogenesis in zebrafish [4] | ocular (retinal) neo-angiogenesis in zebrafish ([4]; listed as MC342) | oxidative stress (ROS) inhibition (ROS; ARPE-19, 1 μM MCK349 then 200 μM H2O2 for 2 h) | vessel formation on matrigel (TIME cells [5]) | endothelial cell proliferation induced by CXCL7 (TIME cells [6]; 100 ng/mL CXCL7, 0.1, 0.2 or 0.5 μM) | endothelial cell proliferation induced by CXCL8 (TIME cells [6]; 100 ng/mL CXCL8, 0.1, 0.2 or 0.5 μM) | choroidal neovascularization (CNV) [7] | vascular leakage (FFA grade 2b lesions) [7]
1 | Cc1ccc(Nc2nc(N)n(Cc3cccc(Br)c3)n2)cc1 [MCK342, 1-(3-bromobenzyl)-N^3-(4-methylphenyl)-1H-1,2,4-triazole-3,5-diamine] | > 25 | ≥ 50 | ≥ 50 | < 50 | inhibit pro-inflammatory cytokines | inhibit the expression | inhibit the expression (mRNA, FIG. 3) and secretion | inhibit ocular neoangiogenesis | inhibit ocular (retinal) neo-angiogenesis | – | – | – | – | – | –
2 | Nc1nc(Nc2ccc(Cl)c(Cl)c2)nn1Cc1cccc(Br)c1 [MCK349, 1-(3-bromobenzyl)-N^3-(3,4-dichlorophenyl)-1H-1,2,4-triazole-3,5-diamine] | > 25 | ≥ 50 | ≥ 50 | ≥ 50 | inhibit pro-inflammatory cytokines | inhibits pro-inflammatory, pro-angiogenic and/or pro-fibrotic mRNA markers; also recorded: inhibit the expression | inhibits pro-inflammatory, pro-angiogenic and/or pro-fibrotic cytokines; also recorded: inhibit the expression (mRNA, FIG. 3) and secretion | inhibit ocular (retinal) neo-angiogenesis; also recorded: inhibit ocular neoangiogenesis | – | inhibits oxidative stress | inhibiting vessel formation on matrigel | inhibiting endothelial cell proliferation | inhibiting endothelial cell proliferation induced by CXCL8 | inhibits vascular leakage (FIGS. 9A and B) and neovascularization; also recorded: inhibits choroidal neovascularization (CNV) | inhibits choroidal neovascularization (CNV) and vascular leakage
